The target in one assay is KRas WT (Homo sapiens, UniProt P01116). Nature of the assay: KRas binding assay (TR-FRET displacement), KRas WT. The following applies: single point, 10 nM compound.
In another assay the target is KRas G12A (Homo sapiens, UniProt P01116, G12A). It counts as binding. To be noted: single point, 10 nM compound, read-out: Binding to KRas (% inhibition at 10 nM) G12A.
The next assay deals with KRas G12C (Homo sapiens, UniProt P01116, G12C). It counts as binding. To be noted: single point, 10 nM compound, read-out: Binding to KRas (% inhibition at 10 nM) G12C.
The target in a further assay is KRas G12S (Homo sapiens, UniProt P01116, G12S). It counts as binding. To be noted: single point, 10 nM compound, read-out: Binding to KRas (% inhibition at 10 nM) G12S.
Another assay addresses KRas G13D (Homo sapiens, UniProt P01116, G13D). It counts as binding. To be noted: single point, 10 nM compound, read-out: Binding to KRas (% inhibition at 10 nM) G13D.
The next assay concerns the target KRas Q61H (Homo sapiens, UniProt P01116, Q61H). Nature of the assay: KRas binding assay (TR-FRET displacement), KRas Q61H. To be noted: single point, 10 nM compound. (In TR-FRET formats the signal depends on donor and acceptor labels being close together.)
Another assay deals with MKN1 cells. Kind of assay: Inhibition of KRas-mediated phosphorylation of ERK (Cisbio HTRF pERK), MKN1 cells. Format: cell-based. The following applies: Homo sapiens, MKN-1, 3 hour compound incubation, Cisbio pERK HTRF. In short, it runs like this:
(§1)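 Cells were seeded on day 1 at 6,000 per well in RPMI containing 10% FBS before compound treatment and phospho-ERK detection.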

The next assay relates to PSN1 cells. Nature of the assay: Inhibition of KRas-mediated phosphorylation of ERK (Cisbio HTRF pERK), PSN1 cells. It counts as cell-based. To be noted: Homo sapiens, PSN1, 3 h, 3 hour compound incubation, Cisbio pERK HTRF. In short, it runs like this:
as §1

A further assay relates to ASPC1 cells. Nature of the assay: Inhibition of KRas-mediated phosphorylation of ERK (Cisbio HTRF pERK), ASPC1 cells. It counts as cell-based. To be noted: Homo sapiens, ASPC1, 3 h, AsPC-1 cells; 3 hr compound incubation; Cisbio pERK HTRF.
For the next assay, the system named is H727 cells. Kind of assay: Inhibition of KRas-mediated phosphorylation of ERK (Cisbio HTRF pERK), H727 cells. It counts as cell-based. The following applies: Homo sapiens, NCI-H727, 3 h, 3 hr compound incubation, Cisbio pERK HTRF.
In a further assay the test system is A549 cells. Kind of assay: Inhibition of KRas-mediated phosphorylation of ERK (Cisbio HTRF pERK), A549 cells. It counts as cell-based. The following applies: Homo sapiens, A549, 3 h, 3 hr compound incubation, Cisbio pERK HTRF.
For a further assay, the system named is H460 cells. Nature of the assay: Inhibition of KRas-mediated phosphorylation of ERK (Cisbio HTRF pERK), H460 cells. Format: cell-based. To be noted: Homo sapiens, NCI-H460, 3 h, 3 hr compound incubation, Cisbio pERK HTRF.
The test system of another assay is HCT116 cells. Nature of the assay: Inhibition of KRas-mediated phosphorylation of ERK (Cisbio HTRF pERK), HCT116 cells. It counts as cell-based. To be noted: Homo sapiens, HCT-116, 3 h, 3 hr compound incubation, Cisbio pERK HTRF.
Another assay addresses KRas G12D (Homo sapiens, UniProt P01116, G12D). Kind of assay: biochemical. To be noted: Binding to KRas (IC50 nM) G12D, TR-FRET displacement, KRas G12D.
The target of another assay is KRas G12R (Homo sapiens, UniProt P01116, G12R). Kind of assay: biochemical. The following applies: Binding to KRas (IC50 nM) G12R, TR-FRET displacement, KRas G12R.
Another assay addresses KRas G12V (Homo sapiens, UniProt P01116, G12V). Nature of the assay: biochemical. The following applies: Binding to KRas (IC50 nM) G12V, TR-FRET displacement, KRas G12V.

SMILES strings stand for the structures.

Chain of KRas G12C (P01116 1-169 isoform P01116-2 G12C): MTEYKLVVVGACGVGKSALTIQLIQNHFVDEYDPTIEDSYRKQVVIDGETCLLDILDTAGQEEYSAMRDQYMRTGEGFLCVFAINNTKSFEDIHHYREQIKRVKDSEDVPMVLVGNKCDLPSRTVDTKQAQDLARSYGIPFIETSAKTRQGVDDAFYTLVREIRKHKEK
Chain of KRas G12R (P01116 1-169 isoform P01116-2 G12R): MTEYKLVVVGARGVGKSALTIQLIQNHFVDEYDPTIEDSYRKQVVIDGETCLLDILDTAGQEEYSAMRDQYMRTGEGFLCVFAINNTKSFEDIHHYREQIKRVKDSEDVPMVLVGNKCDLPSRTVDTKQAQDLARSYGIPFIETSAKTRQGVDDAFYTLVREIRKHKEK
Chain of KRas G12V (P01116 1-169 isoform P01116-2 G12V): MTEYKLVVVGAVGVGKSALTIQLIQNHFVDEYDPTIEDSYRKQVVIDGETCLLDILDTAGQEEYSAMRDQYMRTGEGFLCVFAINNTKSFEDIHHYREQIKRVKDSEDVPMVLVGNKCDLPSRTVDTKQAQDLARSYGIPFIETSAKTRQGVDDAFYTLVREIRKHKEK
Chain of KRas G12D (P01116 1-169 isoform P01116-2 G12D): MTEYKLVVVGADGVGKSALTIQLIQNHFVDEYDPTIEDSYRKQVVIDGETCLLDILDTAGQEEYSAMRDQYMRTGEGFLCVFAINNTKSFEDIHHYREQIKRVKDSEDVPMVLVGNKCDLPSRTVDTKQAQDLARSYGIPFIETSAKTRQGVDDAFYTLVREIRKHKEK
Chain of KRas G12S (P01116 1-169 isoform P01116-2 G12S): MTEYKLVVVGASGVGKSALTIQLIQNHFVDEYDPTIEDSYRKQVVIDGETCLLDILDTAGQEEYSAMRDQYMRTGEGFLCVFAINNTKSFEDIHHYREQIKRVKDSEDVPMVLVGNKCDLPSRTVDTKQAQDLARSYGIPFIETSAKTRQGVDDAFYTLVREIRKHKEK
Chain of KRas G13D (P01116 1-169 isoform P01116-2 G13D): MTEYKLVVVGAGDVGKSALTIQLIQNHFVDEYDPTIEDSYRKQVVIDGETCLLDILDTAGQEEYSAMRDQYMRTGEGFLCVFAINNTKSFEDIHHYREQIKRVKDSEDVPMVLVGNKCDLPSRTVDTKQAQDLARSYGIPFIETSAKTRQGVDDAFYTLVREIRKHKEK
Chain of KRas Q61H (P01116 1-169 isoform P01116-2 Q61H): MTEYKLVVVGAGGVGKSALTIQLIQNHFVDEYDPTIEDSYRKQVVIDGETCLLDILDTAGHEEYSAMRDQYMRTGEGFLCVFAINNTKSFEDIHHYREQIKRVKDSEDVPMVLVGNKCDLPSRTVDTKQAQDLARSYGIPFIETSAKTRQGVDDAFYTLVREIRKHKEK
Chain of KRas G12A (P01116 1-169 isoform P01116-2 G12A): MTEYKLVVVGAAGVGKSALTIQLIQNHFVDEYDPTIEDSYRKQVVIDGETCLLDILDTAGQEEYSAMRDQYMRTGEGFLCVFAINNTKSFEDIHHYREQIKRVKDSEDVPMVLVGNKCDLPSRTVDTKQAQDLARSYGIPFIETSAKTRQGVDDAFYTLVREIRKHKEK
Chain of KRas WT (P01116 1-169 isoform P01116-2): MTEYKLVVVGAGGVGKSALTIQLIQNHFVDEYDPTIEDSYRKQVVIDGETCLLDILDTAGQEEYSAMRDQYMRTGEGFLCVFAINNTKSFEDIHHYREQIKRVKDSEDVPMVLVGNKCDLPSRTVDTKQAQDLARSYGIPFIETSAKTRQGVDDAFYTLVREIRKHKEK

Regarding `CCc1c(F)ccc2cc(O)cc(N3CCc4c(nc(OC[C@@]56CCCN5C[C@H](F)C6)nc4N4CCCn5nc(NC(C)C)cc5C4)C3)c12` [Example 407, 5-ethyl-6-fluoro-4-(2-(((2R,7aS)-2-fluorohexahydro-1H-pyrrolizin-7a-yl)methoxy)-4-(2-(isopropylamino)-7,8-dihydro-4H-pyrazolo[1,5-a][1,4]diazepin-5(6H)-yl)-5,6-dihydropyrido[3,4-d]pyrimidin-7(8H)-yl)naphthalen-2-ol], the inhibition (as a rule, the relative decrease from the control value, in per cent) at 0.01 µM was determined as 56% at KRas WT; 61% at KRas G12A; 78% at KRas G12C; 71% on KRas G12S; 56% at KRas G13D; 56% at KRas Q61H. Moreover, the IC50 (commonly the concentration that inhibits the measured activity by half) was 32.9 nM with MKN1 cells; greater than 10000 nM in the assay with PSN1 cells; 97 nM with ASPC1 cells; 86 nM in the assay with H727 cells; 124 nM in the assay with A549 cells; 151 nM in the assay on H460 cells. Moreover, the IC50 is 593 nM in the assay with HCT116 cells, 4 nM on KRas G12D, 2 nM at KRas G12R and 4 nM at KRas G12V.

For the compound `CCc1c(F)ccc2cc(O)cc(N3CCc4c(nc(OC[C@@]56CCCN5C[C@H](F)C6)nc4N4CCCn5nc6c(c5C4)CCNC6=O)C3)c12` [Example 408, 2-(7-(8-ethyl-7-fluoro-3-hydroxynaphthalen-1-yl)-2-(((2R,7aS)-2-fluorohexahydro-1H-pyrrolizin-7a-yl)methoxy)-5,6,7,8-tetrahydropyrido[3,4-d]pyrimidin-4-yl)-2,3,4,5,10,11-hexahydro-1H-pyrido[3′,4′:3,4]pyrazolo[1,5-a][1,4]diazepin-8(9H)-one], the inhibition at 0.01 µM at KRas WT turned out to be 98%; at KRas G12A it was 98%; at KRas G12C, 99%; on KRas G12S, 100%; at KRas G13D it was 97%; at KRas Q61H it was 97%. The IC50 in the assay on MKN1 cells came to 21.7 nM; with PSN1 cells, 5510 nM; in the assay with ASPC1 cells it was 90 nM; in the assay with H727 cells, 166 nM; in the assay with A549 cells, 363 nM; in the assay with H460 cells, 594 nM. Further, the IC50 was 1040 nM in the assay with HCT116 cells, less than 2 nM on KRas G12D, less than 2 nM on KRas G12R and less than 2 nM at KRas G12V.

As to `CCc1c(F)ccc2cc(O)cc(N3CCc4c(nc(OC[C@@]56CCCN5C[C@H](F)C6)nc4N4CCCn5nc6c(c5C4)CCCN(C)C6=O)C3)c12` [Example 409, 2-(7-(8-ethyl-7-fluoro-3-hydroxynaphthalen-1-yl)-2-(((2R,7aS)-2-fluorohexahydro-1H-pyrrolizin-7a-yl)methoxy)-5,6,7,8-tetrahydropyrido[3,4-d]pyrimidin-4-yl)-9-methyl-2,3,4,5,9,10,11,12-octahydroazepino[3′,4′:3,4]pyrazolo[1,5-a][1,4]diazepin-8(1H)-one], the inhibition at 0.01 µM at KRas WT, on KRas G12A, at KRas G12C, at KRas G12S, on KRas G13D and on KRas Q61H was 100% each time. The IC50 is 3.1 nM with MKN1 cells; 1220 nM with PSN1 cells; 8 nM in the assay with ASPC1 cells; 7 nM in the assay with H727 cells; 22 nM with A549 cells; 57 nM in the assay with H460 cells. For the same compound, the IC50 in the assay on HCT116 cells was 212 nM; on KRas G12D, less than 2 nM; at KRas G12R, less than 2 nM; at KRas G12V it was less than 2 nM.

As to `CCc1c(F)ccc2cc(O)cc(N3CCc4c(nc(OC[C@@]56CCCN5C[C@H](F)C6)nc4N4CCCn5nc(C(=O)OC)cc5C4)C3)c12` [Example 411, methyl 5-(7-(8-ethyl-7-fluoro-3-hydroxynaphthalen-1-yl)-2-(((2R,7aS)-2-fluorohexahydro-1H-pyrrolizin-7a-yl)methoxy)-5,6,7,8-tetrahydropyrido[3,4-d]pyrimidin-4-yl)-5,6,7,8-tetrahydro-4H-pyrazolo[1,5-a][1,4]diazepine-2-carboxylate], the inhibition at 0.01 µM at KRas WT amounted to 73%; on KRas G12A, 74%; at KRas G12C it was 90%; on KRas G12S, 88%; at KRas G13D, 75%; at KRas Q61H, 71%. In addition, the IC50 is 30.1 nM in the assay on MKN1 cells; 6540 nM in the assay with PSN1 cells; 31 nM in the assay with ASPC1 cells; 54 nM in the assay with H727 cells; 111 nM in the assay with A549 cells; 260 nM in the assay on H460 cells. Besides, the IC50 in the assay on HCT116 cells was 423 nM; on KRas G12D, less than 2 nM; at KRas G12R, less than 2 nM; at KRas G12V, less than 2 nM.

As to `CCNc1cc2n(n1)CCCN(c1nc(OC[C@@]34CCCN3C[C@H](F)C4)nc3c1CCN(c1cc(O)cc4ccc(F)c(CC)c14)C3)C2` [Example 412, 5-ethyl-4-(4-(2-(ethylamino)-7,8-dihydro-4H-pyrazolo[1,5-a][1,4]diazepin-5(6H)-yl)-2-(((2R,7aS)-2-fluorohexahydro-1H-pyrrolizin-7a-yl)methoxy)-5,6-dihydropyrido[3,4-d]pyrimidin-7(8H)-yl)-6-fluoronaphthalen-2-ol], the inhibition at 0.01 µM was 62% on KRas WT; 62% on KRas G12A; 83% at KRas G12C; 76% at KRas G12S; 60% on KRas G13D; 61% at KRas Q61H. Also, the IC50 with MKN1 cells was 1.7 nM; in the assay on PSN1 cells it was greater than 10000 nM; with ASPC1 cells it was 96 nM; in the assay on H727 cells, 72 nM; with A549 cells, 213 nM; in the assay on H460 cells, 207 nM. The IC50 was 614 nM in the assay with HCT116 cells, less than 2 nM on KRas G12D, less than 2 nM at KRas G12R and less than 2 nM at KRas G12V.

Regarding `CCc1c(F)ccc2cc(O)cc(N3CCc4c(nc(OC[C@@]56CCCN5C[C@H](F)C6)nc4N4CCCn5nc6c(c5C4)CCCNC6=O)C3)c12` [Example 415, 2-(7-(8-ethyl-7-fluoro-3-hydroxynaphthalen-1-yl)-2-(((2R,7aS)-2-fluorohexahydro-1H-pyrrolizin-7a-yl)methoxy)-5,6,7,8-tetrahydropyrido[3,4-d]pyrimidin-4-yl)-2,3,4,5,9,10,11,12-octahydroazepino[3′,4′:3,4]pyrazolo[1,5-a][1,4]diazepin-8(1H)-one], the inhibition at 0.01 µM came to 99% on KRas WT; 100% at KRas G12A; 100% at KRas G12C; 100% at KRas G12S; 99% at KRas G13D; 100% at KRas Q61H. Further, the IC50 with MKN1 cells came to 16 nM; in the assay with PSN1 cells, 1980 nM; with ASPC1 cells, 26 nM; with H727 cells, 28 nM; with A549 cells it was 134 nM; with H460 cells, 171 nM. The IC50 in the assay with HCT116 cells is 504 nM; on KRas G12D it was less than 2 nM; on KRas G12R, less than 2 nM; on KRas G12V, less than 2 nM.

For the origin of these results see US20250368649A1, “TETRAHYDROPYRIDOPYRIMIDINE PAN-KRAS INHIBITORS” (Mirati Therapeutics, Inc., priority 2022, published 2025).
